This is an account of results in patent publication US20260364080A1, “PYRAZOLO-PYRIMIDINONE COMPOUNDS FOR USE IN METHODS OF INHIBITING WEE1 A KINASE” (Acrivon Therapeutics, Inc., priority 2023, published 2026).

Structures are written as SMILES. Like-named read-outs stand apart in the source and are kept apart here.

Assay [1] deals with T1, Myt1 kinase (recombinant PMYT-1) (Homo sapiens, UniProt Q99640).
T1 construct: full length PMYT-1 was expressed by baculovirus in insect cells; purchased Invitrogen A30984; host or cells: insect cells (baculovirus)
T1 sequence (Q99640 1-499): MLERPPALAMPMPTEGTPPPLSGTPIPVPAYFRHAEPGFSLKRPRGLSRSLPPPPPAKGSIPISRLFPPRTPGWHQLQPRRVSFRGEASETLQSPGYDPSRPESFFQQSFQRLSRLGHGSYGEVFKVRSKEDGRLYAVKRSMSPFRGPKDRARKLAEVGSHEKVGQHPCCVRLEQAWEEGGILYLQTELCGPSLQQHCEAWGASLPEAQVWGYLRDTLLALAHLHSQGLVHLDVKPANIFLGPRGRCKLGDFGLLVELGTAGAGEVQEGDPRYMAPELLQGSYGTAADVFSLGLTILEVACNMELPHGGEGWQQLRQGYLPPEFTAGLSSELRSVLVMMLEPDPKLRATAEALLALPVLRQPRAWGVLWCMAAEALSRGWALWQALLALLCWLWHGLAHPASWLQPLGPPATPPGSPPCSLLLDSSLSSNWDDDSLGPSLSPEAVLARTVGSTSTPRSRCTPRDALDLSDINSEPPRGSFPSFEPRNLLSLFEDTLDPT
Put plainly: Myt1 kinase binding assay (LanthaScreen Eu Kinase Binding Assay). How it is done:
(§1) To calculate the emission ratio, the acceptor/tracer emission ([…]) was divided by the antibody/donor emission ([…]) and the average of duplicate measurement was used for calculations. Data plotting, analysis of binding, and curve fitting was done using Excel add-in XLfit version 5.5.0.5 (IDBS, Guildford, United Kingdom). […] “NT” means not tested.
We used a LanthaScreen Europium (Eu) Kinase Binding Assay to determine the binding affinities (IC50) of compounds to Myt1 kinase. […] “NT” designates that the compound was not tested in this assay.
On the technique in general: In TR-FRET formats the signal depends on donor and acceptor labels being close together.

The target in assay [2] is T2, Wee1A kinase (CDK1 Tyr15 phosphorylation in ACHN renal cell carcinoma cells) (Homo sapiens, UniProt P30291).
T2 construct: pCDK1 Tyr15 immunofluorescence read-out
T2 sequence (P30291 whole entry): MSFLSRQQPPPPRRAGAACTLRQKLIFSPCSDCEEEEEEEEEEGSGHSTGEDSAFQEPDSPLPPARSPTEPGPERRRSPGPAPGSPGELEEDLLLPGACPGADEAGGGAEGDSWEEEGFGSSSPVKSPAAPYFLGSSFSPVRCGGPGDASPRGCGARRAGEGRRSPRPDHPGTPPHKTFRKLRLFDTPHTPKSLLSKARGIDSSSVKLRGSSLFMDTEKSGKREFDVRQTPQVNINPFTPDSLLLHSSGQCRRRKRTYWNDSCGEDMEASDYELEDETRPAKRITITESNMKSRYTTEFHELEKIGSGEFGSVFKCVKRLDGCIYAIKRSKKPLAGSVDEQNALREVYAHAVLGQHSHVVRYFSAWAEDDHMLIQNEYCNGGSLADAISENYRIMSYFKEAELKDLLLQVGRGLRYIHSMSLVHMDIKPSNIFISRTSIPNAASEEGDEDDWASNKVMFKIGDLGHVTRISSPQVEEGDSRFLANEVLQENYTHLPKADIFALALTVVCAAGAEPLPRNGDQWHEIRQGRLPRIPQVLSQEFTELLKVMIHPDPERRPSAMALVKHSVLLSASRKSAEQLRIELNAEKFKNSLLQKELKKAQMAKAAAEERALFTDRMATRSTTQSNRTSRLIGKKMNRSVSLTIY
Briefly: High-content imaging of pCdk1 Y15, Wee1A kinase target engagement in ACHN cells. It counts as cell-based. As for the experimental part:
Each of an ACHN renal cell carcinoma cell line (ATCC) and a DAOY medulloblastoma cell line, and an A427 lung cancer line were cultured in Minimum Essential Medium Eagle supplemented with 10% fetal calf serum (Sigma), 1% Penicillin-Streptomycin and 10 mM HEPES buffer (HyClone). Cell cultures were kept in a humidified incubator at 37 °C and 5% CO2. Cells were routinely tested for Mycoplasma contamination.
For target engagement assessment of Wee1A kinase inhibition, high-content imaging of ACHN renal cell carcinoma cells was used for quantification of CDK1 phosphorylated on tyrosine 15 by immunofluorescence (“IF”). 20,000 cells per well were seeded in tissue culture treated 96 well plates and treated with compounds at concentrations ranging from 7 to 5,000 nM or from 0.3 to 200 nM for 4h. Cells were fixated for 15 minutes in 4% paraformaldehyde solution, washed in PBS and permeabilized using 0.2% Triton X-100. Blocking was performed for 1 h at RT using Blocker FL Fluorescent Blocking Buffer (Thermo Scientific), thereafter cells were incubated with primary antibody (rabbit anti-pCDK1 Y^15, #4539, Cell Signaling Technology) at 4 °C ON. Alexa Fluor Plus 647 labelled goat anti-rabbit (A32733, Thermo Scientific) was used as secondary antibody. After washing in PBS, nuclei were stained with DAPI solution for 10 min at RT, protected from light. Cells were imaged using an ImageXpress Pico automated imaging system and CellReporter Xpress software (Molecular Devices). The percentage of cells with nuclear positivity for pCdk1 Y^15 compared to DMSO control was determined for each well and drug dose response curves and EC50 values were calculated and visualized using GraphPad Prism. Target engagement for Wee1A kinase can also be measured using the same AlphaLISA assay in OVCAR3 cells, an ovarian cancer cell line. NIH:OVCAR-3 (OVCAR3) cells are cultured in RPMI-1640 medium supplemented with 0.01 mg/ml insulin, 20% FBS, 1% Penicillin-Streptomycin and 10 mM HEPES buffer. 14,000 cells per well are seeded into 96 well tissue culture plates in full medium. Twenty-four hours post seeding, cells are treated with compound for 4 hours at concentrations ranging from 0.017 nM to 1000 nM.

Assay [3] concerns the target T3, recombinant human Wee1A kinase (Homo sapiens, UniProt P30291).
T3 construct: full length Wee1 kinase was expressed by baculovirus in insect cells; purchased Invitrogen PV3817; host or cells: insect cells (baculovirus)
Briefly: Wee1A kinase binding assay (LanthaScreen Eu time-resolved FRET). How it is done:
This time resolved-FRET binding assay was performed in white 384-well low volume plates (Greiner, cat #784075), at room temperature in kinase buffer A (KBA; Invitrogen cat #PV3189), consisting of 50 mM HEPES-NaOH (pH 7.5), 0.01% Brij-35, 10 mM MgCl2, and 1 mM EGTA. 5 μL of compound (diluted in reaction buffer, to 1% DMSO) were added to various wells in the plate, followed by 5 μL each of recombinant human Wee1A kinase (full length Wee1 kinase was expressed by baculovirus in insect cells using a N-terminal GST tag (MW: 99.1 kDa) (Invitrogen cat #PV3817) and LanthaScreen Eu-anti-GST antibody (Invitrogen, cat #PV5594). After this, 5 μL of kinase tracer 178 (Invitrogen, cat #PV5593) was added to the plate and the plate was incubated for 60 minutes at room temperature. The final assay conditions in each well were: 30 nM tracer 178, 5 nM Wee1A kinase and 2 nM Eu-labeled antibody in total assay volume of 15 μL. An Envision 2104 (Perkin-Elmer) Plate Reader with the following time-resolve fluorescence setting was used for performing LanthaScreen kinase binding assay. • Excitation 320 nm (30 nm bandpass) • Kinase Tracer Emission 665 nm (10 nm bandpass) • LanthaScreen Eu-anti-Tag Antibody Emission 615 nm (10 nm bandpass) • Dichroic Mirror Instrument dependent • Delay Time 100 μs • Integration Time 200 μs
as §1

[4] abbreviates: 3 nM tracer 178, 2.5 nM PMYT-1, 1 nM Eu-labeled antibody, read-out: Myt1 kinase Binding IC50.
[5] abbreviates: 4 h treatment, nuclear positivity for pCdk1 Y15 vs DMSO control, read-out: CDK1 Tyr15 Phosphorylation EC50.
Where [6] appears, read: 30 nM tracer 178, 5 nM Wee1A kinase, 2 nM Eu-labeled antibody, 60 minutes at room temperature, read-out: Wee1A kinase Binding IC50.
Where [7] appears, read: Myt1 kinase Binding IC50, 3 nM tracer 178, 2.5 nM PMYT-1, 1 nM Eu-labeled antibody.
[8] abbreviates: read-out: CDK1 Tyr15 Phosphorylation EC50, 4 h treatment, nuclear positivity for pCdk1 Y15 vs DMSO control.

T3 sequence (P30291 whole entry): as above

As usually defined, the IC50 is the midpoint of a concentration-inhibition curve. What is called EC50 is the midpoint of the concentration-response curve. `C=CCn1c(=O)c2cnc(Nc3ccc4c(c3)c(C)nn4C)nc2n1-c1cccc(OC2CCNCC2)n1` [Compound 347, 2-allyl-6-((1,3-dimethyl-1H-indazol-5-yl)amino)-1-(6-(piperidin-4-yloxy)pyridin-2-yl)-1,2-dihydro-3H-pyrazolo[3,4-d]pyrimidin-3-one]: the figures for the concentration for half-maximal inhibition (IC50) in assay [1] (setting [4]) and in assay [3] (setting [6]) were 20 to 100 nM and under 10 nM, respectively. In addition, in assay [2] (setting [5]), the EC50 is under 100 nM.
For the molecule `C=CCn1c(=O)c2cnc(Nc3cnn(C(C)C)c3)nc2n1-c1cccc(N(C)C2CCNCC2)n1` [Compound 169, 1-{6-[methyl(piperidin-4-yl)amino]pyridin-2-yl}-2-(prop-2-en-1-yl)-6-{[1-(propan-2-yl)-1H-pyrazol-4-yl]amino}-1H,2H,3H-pyrazolo[3,4-d]pyrimidin-3-one], the IC50 in assay [1] (setting [7]) is over 500 nM; in assay [3], under 10 nM. The EC50 in assay [2] (setting [8]) was over 1000 nM.
Turning to `Cc1cc(Nc2ncc3c(=O)n(C)n(-c4cccc(OC5CCNCC5)n4)c3n2)ccc1F` [Compound 154, 6-(4-fluoro-3-toluidino)-2-methyl-1-[6-(4-piperidyloxy)-2-pyridyl]-1,2-dihydro-3H-1,2,5,7-tetraazainden-3-one], the IC50 in assay [1] (setting [4]) was 100 to 500 nM; in assay [3] (setting [6]) it was under 10 nM. In assay [2] (setting [5]), the EC50 was 100 to 500 nM.
For `C=CCn1c(=O)c2cnc(Nc3ccc4c(c3)nnn4C(C)C)nc2n1-c1cccc(OC2CCNCC2)n1` [Compound 408, 2-allyl-6-((1-isopropyl-1H-benzo[d][1,2,3]triazol-5-yl)amino)-1-(6-(piperidin-4-yloxy)pyridin-2-yl)-1,2-dihydro-3H-pyrazolo[3,4-d]pyrimidin-3-one], the IC50 in assay [1] (setting [4]) was under 20 nM; in assay [3] (setting [6]) it was under 10 nM. For the same molecule, in assay [2] (setting [5]), the EC50 was under 100 nM.
Regarding `C=CCn1c(=O)c2cnc(Nc3cnn(C(C)C)c3)nc2n1-c1cccc(N(C)C2CCN(C)CC2)n1` [Compound 174, 1-{6-[methyl(1-methylpiperidin-4-yl)amino]pyridin-2-yl}-2-(prop-2-en-1-yl)-6-{[1-(propan-2-yl)-1H-pyrazol-4-yl]amino}-1H,2H,3H-pyrazolo[3,4-d]pyrimidin-3-one], the values for the IC50 in assay [1] (setting [7]) and in assay [3] were over 500 nM and under 10 nM, respectively. In addition, the EC50 in assay [2] (setting [8]) is 100 to 500 nM.
In the case of `C=CCn1c(=O)c2cnc(Nc3ccc4c(cnn4C)c3)nc2n1-c1cccc(N[C@@H]2CCN(C)C2)n1` [Compound 115], the IC50 in assay [1] (setting [4]) is 20 to 100 nM; in assay [3] (setting [6]), under 10 nM. The EC50 in assay [2] (setting [5]) was under 100 nM.
The matching figures for `C=CCn1c(=O)c2cnc(Nc3ccc(Cl)cc3)nc2n1-c1cccc(N(C)[C@@H]2CCCNC2)n1` [Compound 171, 1-{6-[N—(R)-3-piperidyl-N-methylamino]-2-pyridyl}-2-allyl-6-(p-chlorophenylamino)-1,2-dihydro-3H-1,2,5,7-tetraazainden-3-one]: over 500 nM, under 10 nM and over 1000 nM.
The matching figures for `C=CCn1c(=O)c2cnc(Nc3ccc(OC(F)(F)F)cc3)nc2n1-c1cccc(NC2CCNCC2)n1` [Compound 135, 1-{6-[(piperidin-4-yl)amino]pyridin-2-yl}-2-(prop-2-en-1-yl)-6-{[4-(trifluoromethoxy)phenyl]amino}-1H,2H,3H-pyrazolo[3,4-d]pyrimidin-3-one]: 100 to 500 nM, under 10 nM and 500 to 1000 nM.
With `C=CCn1c(=O)c2cnc(Nc3ccc(Cl)cc3)nc2n1-c1cccc(OC2CCCNC2)n1` (stereo in doubt) [Compound 159, 6-[(4-chlorophenyl)amino]-1-{6-[(3R)-piperidin-3-yloxy]pyridin-2-yl}-2-(prop-2-en-1-yl)-1H,2H,3H-pyrazolo[3,4-d]pyrimidin-3-one], the half-maximal inhibitory concentration (IC50) in assay [1] (setting [4]) was 20 to 100 nM; in assay [3] (setting [6]), under 10 nM. Also, the half-maximal effective concentration (EC50) in assay [2] (setting [5]) was 500 to 1000 nM.
For the molecule `C=CCn1c(=O)c2cnc(Nc3ccc(N4CCOCC4)c(C)c3)nc2n1-c1cccc(OC2CCNCC2)n1` [Compound 262, 2-allyl-6-(4-morpholino-3-toluidino)-1-[6-(4-piperidyloxy)-2-pyridyl]-1,2-dihydro-3H-1,2,5,7-tetraazainden-3-one], the results for the IC50 in assay [1] (setting [4]) and in assay [3] (setting [6]) were 20 to 100 nM and under 10 nM, respectively. Further, the EC50 in assay [2] (setting [5]) is under 100 nM.
On to `C=CCn1c(=O)c2cnc(Nc3cncc(OC)c3)nc2n1-c1cccc(OC2CCN(C)CC2)n1` [Compound 342, 6-[(5-methoxypyridin-3-yl)amino]-1-{6-[(1-methylpiperidin-4-yl)oxy]pyridin-2-yl}-2-(prop-2-en-1-yl)-1H,2H,3H-pyrazolo[3,4-d]pyrimidin-3-one], for which the IC50 in assay [1] (setting [4]) is 20 to 100 nM; in assay [3] (setting [6]), under 10 nM. Further, in assay [2] (setting [5]), the EC50 is 100 to 500 nM.
Turning to `C=CCn1c(=O)c2cnc(Nc3cc(Cl)cc(Br)c3)nc2n1-c1cccc(NC2CCNCC2)n1` [Compound 144, 6-[(3-bromo-5-chlorophenyl)amino]-1-{6-[(piperidin-4-yl)amino]pyridin-2-yl}-2-(prop-2-en-1-yl)-1H,2H,3H-pyrazolo[3,4-d]pyrimidin-3-one], the IC50 is over 500 nM in assay [1] (setting [4]) and under 10 nM in assay [3] (setting [6]). The EC50 in assay [2] (setting [5]) was 500 to 1000 nM.
The matching figures for `C=CCn1c(=O)c2cnc(Nc3ccc(Cl)c(C)c3)nc2n1-c1cccc(NC2CCNCC2)n1` [Compound 133, 2-allyl-6-(4-chloro-3-toluidino)-1-[6-(4-piperidylamino)-2-pyridyl]-1,2-dihydro-3H-1,2,5,7-tetraazainden-3-one]: 100 to 500 nM, under 10 nM and 100 to 500 nM.
The matching figures for `C=CCn1c(=O)c2cnc(Nc3ccc4c(cnn4C)c3)nc2n1-c1cccc(N[C@H]2CCNC2)n1` [Compound 107, 1-{6-[(S)-3-pyrrolidinylamino]-2-pyridyl}-2-allyl-6-(1-methyl-1H-indazol-5-ylamino)-1,2-dihydro-3H-1,2,5,7-tetraazainden-3-one]: 20 to 100 nM, under 10 nM and over 1000 nM.
